This note sets out measurements from patent publication US12570612B2, “Substituted nitrogen heterocyclic compound and anesthetic effect thereof” (priority 2019, dated 2026).

Some results are limits rather than exact numbers.

One data set relates to H295R cell line. The data set is described as follows: Adrenocortical function in vitro test: secretion of cortisol and corticosterone, Group B compounds. As to conditions: H295R cells. The data set is classed as cell-based.
With `C[C@H](c1ccccc1)n1nnc(I)c1C(=O)OC1CC1` [Compound B144], the “Corticosterone as an indicator to determine the presence of inhibition” value (shortened to “Corticosterone as an indicator … of inhibition”) is on record as 0 and the “Cortisol as an indicator to determine the presence of inhibition” value (shortened to “Cortisol as an indicator … of inhibition”) worked out at 0.
For `CO[C@H]1C[C@@H](OC(=O)c2c(F)nnn2[C@H](C)c2ccccc2)C1` [Compound B40], the “Corticosterone as an indicator … of inhibition” value was determined as 0 and the “Cortisol as an indicator … of inhibition” value was 0.
As to `COC(=O)C1(OC(=O)c2c(Br)nnn2[C@H](C)c2ccccc2)CC1` [Compound B121], the “Corticosterone as an indicator … of inhibition” value was determined as 0 and the “Cortisol as an indicator … of inhibition” value amounted to 0.
In the case of `CCOC(=O)c1nnn([C@H](C)c2ccccc2)c1C(F)(F)F` [Compound B146], the “Corticosterone as an indicator … of inhibition” value was 0 and the “Cortisol as an indicator … of inhibition” value was 0.
Turning to `C=CCOC(=O)c1c(I)nnn1[C@H](C)c1ccccc1` [Compound B136], the “Corticosterone as an indicator … of inhibition” value was 0 and the “Cortisol as an indicator … of inhibition” value worked out at 0.
Consider `C[C@H](c1ccccc1)n1nncc1C(=O)OCC1CC1` [Compound B7], for which the “Corticosterone as an indicator … of inhibition” value came to 0 and the “Cortisol as an indicator … of inhibition” value was found to be 0.
Consider `C=C=CC1(OC(=O)c2c(Br)nnn2[C@H](C)c2ccccc2)COC1` [Compound B101], for which the “Corticosterone as an indicator … of inhibition” value is listed as 0 and the “Cortisol as an indicator … of inhibition” value is on record as 0.
As for `C[C@H](c1ccccc1)n1nnc(I)c1C(=O)OCC1CC1` [Compound B133], the “Corticosterone as an indicator … of inhibition” value is 0 and the “Cortisol as an indicator … of inhibition” value amounted to 0.

Staying with this data set, now noted: H295R cells, 0.1-10000 nM, HPLC-MS/MS; read-out: EC50 (Corticosterone).
Usually EC50 stands for the concentration at which the effect is half-maximal. Take `CCOC(=O)c1nnn([C@H](C)c2ccccc2)c1C(F)(F)F` [Compound B146]: the EC50 was above 3000 nM.
Take `C=CCOC(=O)c1c(I)nnn1[C@H](C)c1ccccc1` [Compound B136]: the EC50 is above 1000 nM.
In the case of `C=C=CC1(OC(=O)c2c(Br)nnn2[C@H](C)c2ccccc2)COC1` [Compound B101], the EC50 is above 1000 nM.

The same data set, now with this note: H295R cells, 0.1-10000 nM, HPLC-MS/MS; read-out: EC50 (Cortisol).
In the case of `CCOC(=O)c1nnn([C@H](C)c2ccccc2)c1C(F)(F)F` [Compound B146], the EC50 was above 3000 nM.
Same read-out and setting: then `C=CCOC(=O)c1c(I)nnn1[C@H](C)c1ccccc1` [Compound B136], with above 1000 nM; and `C=C=CC1(OC(=O)c2c(Br)nnn2[C@H](C)c2ccccc2)COC1` [Compound B101], with above 1000 nM.

Staying with this data set, now noted: Homo sapiens, NCI-H295R, H295R cells, 0.1-10000 nM, HPLC-MS/MS; read-out: EC50 (Corticosterone).
Turning to `C[C@H](c1ccccc1)n1nnc(I)c1C(=O)OC1CC1` [Compound B144], the EC50 is above 1000 nM.
Same read-out and setting: then `CO[C@H]1C[C@@H](OC(=O)c2c(F)nnn2[C@H](C)c2ccccc2)C1` [Compound B40], with above 100 nM; and `COC(=O)C1(OC(=O)c2c(Br)nnn2[C@H](C)c2ccccc2)CC1` [Compound B121], with above 1000 nM.
Turning to `C[C@H](c1ccccc1)n1nncc1C(=O)OCC1CC1` [Compound B7], the EC50 is above 100 nM.
Same read-out and setting: as for `C[C@H](c1ccccc1)n1nnc(I)c1C(=O)OCC1CC1` [Compound B133], the figure is above 1000 nM.

The data set is the same for the next values; noted with them: Homo sapiens, NCI-H295R, H295R cells, 0.1-10000 nM, HPLC-MS/MS; read-out: EC50 (Cortisol).
With `C[C@H](c1ccccc1)n1nnc(I)c1C(=O)OC1CC1` [Compound B144], the EC50 was above 1000 nM.
Still for that read-out and setting: as for `CO[C@H]1C[C@@H](OC(=O)c2c(F)nnn2[C@H](C)c2ccccc2)C1` [Compound B40], the figure is above 100 nM.
On the same count and under the same terms, then `COC(=O)C1(OC(=O)c2c(Br)nnn2[C@H](C)c2ccccc2)CC1` [Compound B121], with above 1000 nM; and `C[C@H](c1ccccc1)n1nncc1C(=O)OCC1CC1` [Compound B7], with above 100 nM; and `C[C@H](c1ccccc1)n1nnc(I)c1C(=O)OCC1CC1` [Compound B133], with above 1000 nM.

The subject of the next data set is Sprague-Dawley rats. Description: animal or person. As to conditions: LORR in rats, tail vein; brackets = 95% confidence limit. The procedure:
Adult male Sprague-Dawley rats (250-300 g) were selected for the experiment. […] The anesthesia effects of the compounds were assessed in rats using a LORR assay and a period >30 s was considered as an indicator of general anesthesia.
The term ED50 denotes the midpoint of the dose-response relation. On to `CCOC(=O)c1nnn([C@H](C)c2ccccc2)c1C(F)(F)F` [Compound B146], for which the ED50 entry is given as “C (C indicates that the measured ED50 is in the range of 1.00-2.00 mg/kg (excluding 1.00 mg/kg, including 2.00 mg/kg))”.
`C=CCOC(=O)c1c(I)nnn1[C@H](C)c1ccccc1` [Compound B136]: the ED50 entry is reported as “D (D indicates that the measured ED50 is in the range of 2.00-10.00 mg/kg (excluding 2.00 mg/kg, including 10.00 mg/kg))”.
With `C=C=CC1(OC(=O)c2c(Br)nnn2[C@H](C)c2ccccc2)COC1` [Compound B101], the ED50 entry is on record as “C (C indicates that the measured ED50 is in the range of 1.00-2.00 mg/kg (excluding 1.00 mg/kg, including 2.00 mg/kg))”.

Still in this data set, the particulars now being: Rattus norvegicus, LORR in rats, tail vein; brackets = 95% confidence limit.
`C[C@H](c1ccccc1)n1nnc(I)c1C(=O)OC1CC1` [Compound B144] showed an ED50 of 10 to 20 mg/kg.
Molecule `CO[C@H]1C[C@@H](OC(=O)c2c(F)nnn2[C@H](C)c2ccccc2)C1` [Compound B40] had an ED50 of 0.5 to 1 mg/kg.
`COC(=O)C1(OC(=O)c2c(Br)nnn2[C@H](C)c2ccccc2)CC1` [Compound B121] gave an ED50 of 2 to 10 mg/kg.
As to `C[C@H](c1ccccc1)n1nncc1C(=O)OCC1CC1` [Compound B7], the ED50 fell in the range of 0.5 to 1 mg/kg.
For `C[C@H](c1ccccc1)n1nnc(I)c1C(=O)OCC1CC1` [Compound B133], the ED50 was in the range of 0.5 to 1 mg/kg.

The data set is the same for the next values; noted with them: rats.
Turning to `C[C@H](c1ccccc1)n1nnc(I)c1C(=O)OC1CC1` [Compound B144], the Approximate therapeutic index was above 2 and the Minimal lethal dose is on record as above 24 mg/kg.
The molecule `CO[C@H]1C[C@@H](OC(=O)c2c(F)nnn2[C@H](C)c2ccccc2)C1` [Compound B40] yielded an Approximate therapeutic index above 6 and a Minimal lethal dose above 6 mg/kg.
The molecule `COC(=O)C1(OC(=O)c2c(Br)nnn2[C@H](C)c2ccccc2)CC1` [Compound B121] displayed an Approximate therapeutic index above 3 and a Minimal lethal dose above 20 mg/kg.
The like results for `CCOC(=O)c1nnn([C@H](C)c2ccccc2)c1C(F)(F)F` [Compound B146] were, in that order, above 8 and above 14 mg/kg.
`C=CCOC(=O)c1c(I)nnn1[C@H](C)c1ccccc1` [Compound B136] gave an Approximate therapeutic index above 6 and a Minimal lethal dose above 18 mg/kg.
On to `C[C@H](c1ccccc1)n1nncc1C(=O)OCC1CC1` [Compound B7], for which the Approximate therapeutic index is reported as above 31 and the Minimal lethal dose is given as above 24 mg/kg.
The molecule `C=C=CC1(OC(=O)c2c(Br)nnn2[C@H](C)c2ccccc2)COC1` [Compound B101] showed an Approximate therapeutic index above 7 and a Minimal lethal dose above 13 mg/kg.
`C[C@H](c1ccccc1)n1nnc(I)c1C(=O)OCC1CC1` [Compound B133] yielded an Approximate therapeutic index above 20 and a Minimal lethal dose above 14 mg/kg.
